Entries after “also recorded” stand apart in the source; their conditions may differ.
Molecular target: T1, plasminogen (Homo sapiens, UniProt P00747)
T1 construct: Glu-Pg, uPA, tPA, fibrinogen, and chromogenic substrate for Pn were purchased from Molecular Innovations (Novi, Mich.); purchased Molecular Innovations (Novi, Mich.)
Test: LC-MS/MS identification of sites of MG adduction on plasminogen in vitro (Tables 1 and 12)
Conditions: 500 μM MG, 24 hr
Description: 10 μg Pg was incubated with MG (50-500 μM) in tris-buffered saline (TBS) for 24 hours at 37° C. Following modification, sample volumes were increased to 150 μL and placed in 5 kDa spin filters to reduce volume and remove excess MG from solution.
MG-modified (500 μM) and unmodified Pg control (same incubation conditions without MG) were added to 250 μL amount of rehydration buffer (6M urea, 2M thiourea, 2% CHAPS, 100 mM DTT, 0.5% 3-10 ampholytes) and 5 μL of 3-10 ampholytes (Bio-Rad). Sample rehydrated with a 13 cm 4-7 pH isoelectric focusing strip (GE Healthcare) overnight. Following rehydration, strips were placed in a Bio-Rad PROTEAN IEF Cell focusing instrument. Strips were first focused for 1 hour at 500 V, and then run at a maximum of 8,000V until the strips have reached a final total of 45,000 V/hrs at which point gels are held at 500V until removed. Focused strips were removed, reduced with DTT, cysteines carbamidomethylated with iodoacetamide, and run on a 4-20% gradient Criterion gel for 55 minutes at 200V. Gels were stained for stained according to manufacturer instructions with Imperial Blue Protein (ThermoScientific, Rockford, Ill.) and destained immediately with water. Gel bands were excised and trypsin digested.
Coomassie stained gel-bands were excised and washed in ddH2O for 15 min. H2O was removed and bands were incubated in 50/50 acetonitrile (ACN):ddH2O for 15 min. ACN:ddH2O was removed and bands were incubated with ACN for 5 min. ACN was removed and gels were incubated with 100 mM ammonium bicarbonate (AMBIC). An equal volume of ACN was added to make 1:1 solution and was incubated for 15 min. The ACN/AMBIC solution was removed and remaining gel bands were dried by speed-vacuum. 10 mM dithiothreitol (DTT) was added to each band and incubated at 56° C. for 45 min. DTT was removed and sample brought to room temperature (RT). Iodoacetamide (55 mM) was added to each sample and incubated at RT for 30 min in dark. Iodoacetamide was removed and 100 mM AMBIC was added and bands were incubated for 5 min. An equal volume of ACN was added to make a 1:1 solution and incubated for 15 min. The ACN/AMBIC solution was removed and bands were dried by speed-vacuum. Bands were digested with trypsin (400 ng/band) in 50 mM AMBIC and incubated on ice for 45 min. Tryptic solution was removed and 50 mM AMBIC was added to each band and incubated overnight at 37° C. to complete digestion. Digests were acidified using 10% trifluoroacetic acid (TFA). Supernatant was saved. Band was covered with TFA:ACN (0.1%:60%) and sonicated at 20° C. water bath for 30 min. Supernatant was combined with previous fraction. Sampled were speed vacuumed to a final volume of 10 μL prior to LC-MS/MS analysis on an LTQ Orbitrap Velos mass spectrometer as described below.
LC-MS/MS analysis of in-gel trypsin digested-proteins (Shevchenko et al., 1996) was carried out using a LTQ Orbitrap Velos mass spectrometer (Thermo Fisher Scientific, San Jose, Calif.) equipped with an Advion nanomate ESI source (Advion, Ithaca, N.Y.), following ZipTip (Millipore, Billerica, Mass.) C18 sample clean-up according to the manufacturer's instructions. Peptides were eluted from a C18 precolumn (100-μm id×2 cm, Thermo Fisher Scientific) onto an analytical column (75-μm ID×10 cm, C18, Thermo Fisher Scientific) using a 5-20% gradient of solvent B (acetonitrile, 0.1% formic acid) over 65 minutes, followed by a 20-35% gradient of solvent B over 25 minutes, all at a flow rate of 400 nl/min. Solvent A consisted of water and 0.1% formic acid. Data dependent scanning was performed by the Xcalibur v 2.1.0 software (Andon et al., 2002) using a survey mass scan at 60,000 resolution in the Orbitrap analyzer scanning m/z 350-1600, followed by collision-induced dissociation (CID) tandem mass spectrometry (MS/MS) of the fourteen most intense ions in the linear ion trap analyzer. […]

T1 sequence (P00747 20-810 limits assumed): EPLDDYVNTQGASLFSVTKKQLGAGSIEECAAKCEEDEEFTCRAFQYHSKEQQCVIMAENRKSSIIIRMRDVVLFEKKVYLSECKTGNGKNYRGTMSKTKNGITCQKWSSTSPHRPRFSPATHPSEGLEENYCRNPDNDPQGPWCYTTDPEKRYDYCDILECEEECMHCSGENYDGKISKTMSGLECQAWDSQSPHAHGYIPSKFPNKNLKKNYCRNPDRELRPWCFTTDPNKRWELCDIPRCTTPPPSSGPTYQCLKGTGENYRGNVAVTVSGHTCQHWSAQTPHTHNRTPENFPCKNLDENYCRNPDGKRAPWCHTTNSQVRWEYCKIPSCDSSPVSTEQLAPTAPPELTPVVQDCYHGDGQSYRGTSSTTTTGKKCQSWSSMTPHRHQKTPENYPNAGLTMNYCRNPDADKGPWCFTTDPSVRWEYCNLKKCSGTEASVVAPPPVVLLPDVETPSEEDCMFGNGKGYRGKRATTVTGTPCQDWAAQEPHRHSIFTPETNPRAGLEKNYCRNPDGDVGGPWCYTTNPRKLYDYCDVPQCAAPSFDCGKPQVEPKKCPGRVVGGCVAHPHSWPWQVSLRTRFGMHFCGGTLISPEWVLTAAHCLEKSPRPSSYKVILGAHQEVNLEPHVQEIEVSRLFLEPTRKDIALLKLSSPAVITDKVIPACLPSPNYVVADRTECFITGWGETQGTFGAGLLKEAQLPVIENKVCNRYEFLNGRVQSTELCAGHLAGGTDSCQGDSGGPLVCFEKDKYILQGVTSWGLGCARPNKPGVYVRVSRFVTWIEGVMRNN

CC(=O)C=O [MG, Methylglyoxal]
Modifications (plasminogen site 43): MG-HI
Modifications (plasminogen site 61): MG-DH; also recorded: MG-HI
Modifications (plasminogen site 68): MG-DH; also recorded: MG-HI
Modifications (plasminogen site 70): MG-DH; also recorded: MG-HI
Modifications (plasminogen site 115): MG-HI
Modifications (plasminogen site 117): MG-HI; also recorded: MG-DH
Modifications (plasminogen site 134): MG-DH
Modifications (plasminogen site 220): MG-DH; also recorded: MG-HI
Modifications (plasminogen site 223): MG-HI
Modifications (plasminogen site 234): MG-DH
Modifications (plasminogen site 242): MG-DH; also recorded: MG-HI
Modifications (plasminogen site 265): MG-DH; also recorded: MG-HI
Modifications (plasminogen site 290): MG-HI
Modifications (plasminogen site 312): MG-DH; also recorded: MG-HI
Modifications (plasminogen site 324): MG-HI; also recorded: MG-DH
Modifications (plasminogen site 389): MG-HI; also recorded: MG-DH
Modifications (plasminogen site 474): MG-HI; also recorded: MG-DH
Modifications (plasminogen site 493): MG-HI; also recorded: MG-DH
Modifications (plasminogen site 504): MG-HI; also recorded: MG-DH
Modifications (plasminogen site 530): MG-HI; also recorded: MG-DH
Modifications (plasminogen site 561): MG-HI; also recorded: MG-DH
Modifications (plasminogen site 582): MG-HI; also recorded: MG-DH
Modifications (plasminogen site 644): MG-HI
Modifications (plasminogen site 712): MG-DH; also recorded: MG-HI
Modifications (plasminogen site 767): MG-HI; also recorded: MG-DH
Modifications (plasminogen site 779): MG-HI; also recorded: MG-DH
Modifications (plasminogen site 789): MG-HI; also recorded: MG-DH
Modifications (plasminogen sites 115/117 on one peptide, two adducts): MG-HI;; also recorded: MG-HI; also recorded: MG-DH;; also recorded: MG-DH
Modifications (plasminogen sites 220/223 on one peptide, two adducts): MG-HI;; also recorded: MG-DH; also recorded: MG-HI; also recorded: MG-DH;
Modifications (plasminogen sites 312/324 on one peptide, two adducts): MG-DH;; also recorded: MG-HI; also recorded: MG-DH; also recorded: MG-HI;
Modifications (plasminogen sites 474/493 on one peptide, two adducts): MG-DH;; also recorded: MG-HI; also recorded: MG-HI;
Modifications (plasminogen sites 489/504 on one peptide, two adducts): MG-HI;; also recorded: MG-DH
Modifications (plasminogen sites 779/789 on one peptide, two adducts): MG-HI;; also recorded: MG-DH; also recorded: MG-HI; also recorded: MG-DH;
Spectra Observed (site 43, MG-HI, C(+57)EEDEEFTC(+57)RAFQYHSK): 1
Spectra Observed (site 61, MG-DH, EQQC(+57)VIMAENRK): 3
Spectra Observed (site 61, MG-HI, EQQC(+57)VIMAENRK): 4
Spectra Observed (site 68, MG-DH, SSIIIRMR): 2
Spectra Observed (site 68, MG-HI, KSSIIIRMR): 1
Spectra Observed (site 70, MG-DH, M(+16)RDVVLFEK): 2
Spectra Observed (site 70, MG-DH, MRDVVLFEK): 7
Spectra Observed (site 70, MG-DH, MRDVVLFEKK): 2
Spectra Observed (site 70, MG-HI, M(+16)RDVVLFEK): 4
Spectra Observed (site 70, MG-HI, MRDVVLFEK): 4
Spectra Observed (site 70, MG-HI, MRDVVLFEKK): 4
Spectra Observed (site 115, MG-HI, WSST SPHRPR): 4
Spectra Observed (site 117, MG-DH, WSSTSPHRPRFSPATHPSEGLEENYC(+57)R): 9
Spectra Observed (site 117, MG-HI, WSSTSPHRPRFSPATHPSEGLEENYC(+57)R): 9
Spectra Observed (site 134, MG-DH, FSPATHPSEGLEENYCRNPDNDPQGPWC(+57)YTTDPEKR): 1
Spectra Observed (site 220, MG-DH, NPDRELRPWC(+57)FTTDPNK): 1
Spectra Observed (site 220, MG-DH, NPDRELRPWC(+57)FTTDPNKR): 6
Spectra Observed (site 220, MG-HI, NPDRELRPWC(+57)FTTDPNK): 5
Spectra Observed (site 223, MG-HI, ELRPWC(+57)FTTDPNKR): 4
Spectra Observed (site 223, MG-HI, NPDRELRPWC(+57)FTTDPNKR): 11
Spectra Observed (site 234, MG-DH, RWELC(+57)DIPR0): 2
Spectra Observed (site 242, MG-DH, WELC(+57)DIPRC(+57)TTPPPSSGPTYQC(+57)LK): 6
Spectra Observed (site 242, MG-HI, WELC(+57)DIPRC(+57)TTPPPSSGPTYQC(+57)LK): 3
Spectra Observed (site 265, MG-DH, GTGENYRGNVAVTVSGHTC(+57)QHWSAQTPHTHNR): 7
Spectra Observed (site 265, MG-HI, GTGENYRGNVAVTVSGHTC(+57)QHWSAQTPHTHNR): 5
Spectra Observed (site 290, MG-HI, GNVAVTVSGHTC(+57)QHWSAQTPHTHNRTPENFPC(+57)K, MH+ 3809.751): 12
Spectra Observed (site 290, MG-HI, GNVAVTVSGHTC(+57)QHWSAQTPHTHNRTPENFPC(+57)K, MH+ 3827.75): 4
